Assay results published in patent US7211428B1, “Strain of Bacillus as a bioinoculant” (Council of Scientific and Industrial Research, priority 2004, dated 2007).

System: geranium cuttings
Assay: Root initiation and survival of geranium cuttings after treatment
Assay type: in vivo, Pelargonium graveolens
Design: % survivality, Normal / % survivality, Two node / % survivality, Apical: concentration or dose not given beside the values
Conditions: for % survivality, Apical: apical cuttings; for % survivality, Normal: normal cuttings; for % survivality, Two node: two node cuttings
Excerpt: Geranium cuttings treated with Bacillus strain MTCC-5130, initiated rooting after 22–25 days of treatment, which was 5–7 days earlier than untreated control cuttings.

Indole butyric acid [IBA]
Root initiation (days after) (cuttings of Dec. 5, 2001): 28 days
% survivality, Apical (cuttings of Dec. 5, 2001): 100.0%
% survivality, Normal (cuttings of Dec. 5, 2001): 100%
% survivality, Two node (cuttings of Dec. 5, 2001): 100%
Root initiation (days after) (cuttings of Nov. 20, 2001): 27 days
% survivality, Apical (cuttings of Nov. 20, 2001): 95.8%
% survivality, Normal (cuttings of Nov. 20, 2001): 100%
% survivality, Two node (cuttings of Nov. 20, 2001): 69.2%
